Patent publication US20240139206A1, “METHODS OF TREATMENT” (Kinoxis Therapeutics Pty Ltd, priority 2021, published 2024)
“Also recorded” adds a separate entry of the source.

Experiments:
Assay type in all cases: in vivo
[1] = tested on: APP/PS1 mice; experiment: Resident-Intruder (RI) test in Alzheimer's disease aggression mouse model; conditions: for number (frequency) of attacks on the intruder mouse vs vehicle-treated APP/PS1 mice: KNX100 phosphate salt 2.5, 5 or 10 mg/kg freebase equivalent IP 15 min prior, risperidone 0.05 mg/kg IP 30 min prior, 5-minute session
Excerpt: Male APP/PS1 and WT mice (˜3 months of age) were used to assess the effect of KNX100 on aggression in a mouse model of Alzheimer's Disease.
APP/PS1 are double transgenic mice expressing a chimeric mouse/human amyloid precursor protein (APP) and presenilin (PS1).
Male C57BL/6J mice were purchased from Jackson Laboratory at 7-8 weeks of age and were used as the intruders in this study. The APP/PS1 mice and wild-type control mice were single-housed and C57BL/6J mice were group-housed (4 per cage) in a light-controlled environment (12/12 light/dark cycle) with access to food and water ad libitum. Tests were performed during the animal's light cycle.
The test compound, KNX100 was provided in its phosphate salt form. Doses of 2.5, 5, and 10 mg/kg freebase equivalent were dissolved in saline and injected IP, at a dose volume of 10 ml/kg, 15 minutes prior to the test.
Briefly, all mice were acclimated to red-light conditions for 60 minutes prior to testing. During the RI test, an unfamiliar intruder C57BL/6J mouse was placed directly into the home cage of the APP/PS1 resident mouse for 300 seconds. During the 5-minute session, the latency time to attack (attack was defined at a bite), and the total number (frequency) of attacks, were recorded manually by an experimenter blinded to the treatment groups. Immediately after testing, mice were separated, and the intruder mouse was placed back into his home cage. All mice that were wounded were treated according to IACUC guidelines.
One week after the pre-screen RI session, AD resident mice were administered vehicle, test compound, or risperidone. The RI test session was performed as described above following the appropriate pretreatment time.
Body weights were recorded at each time point as specified above. For aggression, the latency to attack and the total number of attacks were recorded.
Data were analyzed by analysis of variance (ANOVA) followed by post-hoc comparisons when appropriate. An effect was considered significant if p<0.05. Data are presented as the mean±standard error of the mean (SEM).

[2] = tested on: single housed hyper-aggressive male Swiss mice; experiment: Isolation-induced aggression model, two mouse social interaction test; conditions: for increased time spent fighting in single housed mice: 10-minute test
Excerpt: This model has been chosen as it is considered to have excellent predictive validity toward human aggression and face validity for modelling offensive impulsive aggression in human aggression and it leads specifically to alterations in aggressive behaviour without confounding changes in other behaviours.
Eighty male Swiss mice (ARC, Perth, Australia) aged 6-7 weeks upon arrival were used for objectives (1) and (3) in this study, 30 mice of the same age and strain were used for objective (2). Subjects were housed four per cage in a temperature-controlled colony room (22° C.±1° C.) under standard laboratory conditions (12-hour light/dark cycle; light phase 0700-1900 hours) upon arrival. Mice were housed in standard IVC cages. Mice had ad libitum access to food and water in their home cages. All experiments were performed during the light phase. All experimental procedures were approved by University of Sydney Animal Ethics Committee.
After allowing 1 week for acclimatisation, n=64 mice were rendered hyper-aggressive by moving them into single housing, whereas n=16 animals were housed in groups of four. During this time, all mice were weighed at least once per week. One week prior to the commencement of testing mice were given habituation injections with saline (0.9%, 10 mL/kg) to reduce the potential confounding stress and anxiety from injections during testing.
Testing commenced from 6 weeks post-isolation. All experiments were conducted in testing arenas constructed from acrylic, with matte blue internal walls and floor (400 mm×400 mm×400 mm). The lighting at the centre of the arenas during testing was <10 lux. Prior to each test, one mouse in each pair was marked on its back with a non-toxic green marker, this allowed the automated behavioural tracking software to distinguish between the two mice (see below). On test days, weight and condition matched pairs of unfamiliar mice were administered their drug treatment(s) as described below and were then placed into the testing arena together for a 10 min test session (Examples 2 and 4) or a 5 minute test session (Example 3).
Drugs were administered either via intraperitoneal (i.p.) injection (injection volume 10 ml/kg) or administered orally (as indicated). The testing arenas were cleaned between sessions with ethanol (80%) and F10 disinfectant to eliminate residual odours.
KNX100 2HCL (Wuxi Apptech, Hong Kong, China) was dissolved in saline (0.9%).
A 5 group between-subjects design was utilised. 15 min prior to testing, group-housed mice received vehicle treatment (VEHg) and single housed mice received one of four different doses of KNX100 (0 aka VEHs, 2.5, 5 or 10 mg/kg). The sample size in each group was as follows: group housed (n=12); singled housed administered KNX100 dose 0 (n=14), […] (n=16), […] (n=18), and 10 (n=16) mg/kg, for i.p. administration.
For oral dosing, mice were similarly grouped, and 20 mg/kg KNX100 in saline or vehicle (saline) were administered by oral gavage with n=10 mice per group.
A 4 group between-subjects design was utilised.
The behaviours of interest were: (1) time (in seconds) spent fighting; (2) time (in seconds) spent huddling (defined as the mice being in close physical contact with each other while stationary); (3) time (in seconds) spent grooming themselves; and (4) distance travelled (in mm) by each mouse during the experimental session.
Experimental sessions were recorded with an overhead camera using CaptureStar (Version 1.00, CleverSys, Virginia, USA). The behaviours detailed above were automatically quantified from the videos using the behavioural tracking software TopScan, SocialScan and AggressionScan (CleverSys, Virginia, USA). Data were analysed using SPSS (Version 24.0, IBM, USA). Data were analysed with a one-way ANOVA and planned contrasts. Significance was set at p≤0.05.
This study used the same model and testing procedure for the two-mouse social interaction test as described in Example 1, and using a phosphate salt form of KNX100.

[3] = tested on: 6-OHDA lesion mice; experiment: Social interaction test in neonatal 6-OHDA lesion mouse model of ADHD; conditions: KNX100 phosphate 1.845-7.38 mg/kg freebase equivalent i.p. or 3.75-15 mg/kg p.o.
Excerpt: Increased aggression is commonly observed in patients with ADHD. This increased aggression is also observed in several animal models of ADHD. One such model is the neonatal 6-hydroxydopamine (6-OHDA) lesion mouse model.
Briefly, intracerebroventricular infusion of 6-OHDA into brains of mice around postnatal day 5 results in a biological ADHD phenotype (e.g. dopamine depletion) and a behavioural phenotype (e.g. hyperactivity, impaired attention, impulsivity, aggression, and learning and memory deficits) in the majority of mice from postweaning onwards.
Five primary experimental conditions of interest are investigated: • Sham lesion mice treated with vehicle • 6-OHDA lesion mice treated with vehicle • 6-OHDA lesion mice treated with 1.845 mg/kg freebase equivalent KNX100 phosphate i.p. or 3.75 mg/kg p.o. • 6-OHDA lesion mice treated with 3.69 mg/kg freebase equivalent KNX100 phosphate i.p. or 7.5 mg/kg p.o. • 6-OHDA lesion mice treated with 7.38 mg/kg freebase equivalent KNX100 phosphate i.p. or 15 mg/kg p.o.
During adolescence, mice undergo a social interaction test to test the effects of KNX100 on increased aggression the ADHD model mice (6-OHDA lesion mice) compared to the control mice (sham lesion mice). […] The behaviours of the control or ADHD model mouse are assessed and include the total time spent fighting, the total number of fights, and the latency to the first fight.

[4] = Example 4: 0.1 mg/kg risperidone (30 min prior) or 10 mg/kg KNX100 dihydrochloride salt (15 min prior), 10 min test
[5] = Example 4: 0.1 mg/kg risperidone or 10 mg/kg KNX100 dihydrochloride salt
[6] = Example 4: 10 mg/kg KNX100 vs 0.1 mg/kg risperidone
[7] = KNX100 dihydrochloride salt 20 mg/kg p.o. 30 min prior, 5 min test
[8] = KNX100 dihydrochloride salt 2.5, 5 or 10 mg/kg i.p., single housed mice, linear trend for dose
[9] = acute KNX100 phosphate salt 15 mg/kg freebase equivalent p.o.
[10] = subchronic KNX100 phosphate salt 15 mg/kg freebase equivalent p.o. once daily 7 days

Cc1nc2n(c(=O)c1CCN1CCC(c3noc4cc(F)ccc34)CC1)CCCC2 [risperidone, reference compound]
number (frequency) of attacks on the intruder mouse vs vehicle-treated APP/PS1 mice [1]: decreased the number of attacks | time spent fighting vs vehicle treated single housed mice [2, 4]: spent less time fighting; also recorded: significantly inhibited fighting | time spent fighting vs vehicle treated group housed mice [2, 5]: spent less time fighting | time spent huddling vs vehicle treated single housed mice [2, 5]: spent significantly more time huddling; also recorded: increased huddling | time spent grooming vs vehicle treated single housed mice ([2]; Example 4: 0.1 mg/kg risperidone, 0.1 mg/kg): spent significantly more time grooming; also recorded: significantly increased time spent grooming

Cn1ncc2c1Nc1ccccc1NC2 [KNX100]
total time spent fighting, total number of fights, latency to the first fight [3]: is shown to inhibit fighting incidents, duration of fighting, and latency to first attack | latency to attack the intruder mouse vs vehicle-treated APP/PS1 mice ([1]; KNX100 phosphate salt 10 mg/kg freebase equivalent IP): showed a trend to increasing the latency to attack; also recorded: tended to increase the latency to attack intruders | number (frequency) of attacks on the intruder mouse vs vehicle-treated APP/PS1 mice [1]: decreased the number of attacks; also recorded: robustly reduced the number of aggressive attacks | time spent fighting vs vehicle treated single housed mice [2, 4]: spent less time fighting; also recorded: significantly inhibited fighting | distance travelled vs vehicle treated single housed mice [2, 5]: travelled significantly less distance; also recorded: significantly reduced distance travelled | time spent fighting vs vehicle treated group housed mice [2, 5]: spent less time fighting | time spent huddling vs vehicle treated single housed mice [2, 5]: spent significantly more time huddling; also recorded: increased huddling | distance travelled / locomotor activity, risperidone compared with KNX100 ([2]; Example 4: 0.1 mg/kg risperidone vs 10 mg/kg KNX100): significantly less suppression of locomotor activity | time spent grooming vs vehicle treated group housed mice ([2]; Example 4: 10 mg/kg KNX100 dihydrochloride salt): did not differ significantly from vehicle treated group housed mice in time spent grooming | time spent fighting / inhibition of aggression, KNX100 compared with risperidone [2, 6]: no significant difference in time spent fighting; also recorded: at least equivalent inhibition of aggression to risperidone | time spent grooming, KNX100 compared with risperidone [2, 6]: no significant different in time spent grooming | time spent huddling, KNX100 compared with risperidone [2, 6]: no significant difference in time spent huddling | time spent fighting vs vehicle treated group housed mice [2, 7]: did not differ significantly in time spent fighting compared to vehicle treated group housed mice; also recorded: did not differ significantly in time spent fighting relative to the group housed mice | time spent fighting vs vehicle treated single housed mice [2, 7]: spent significantly less time fighting than the single housed vehicle treated mice | distance travelled relative to the group housed mice ([2]; KNX100 dihydrochloride salt 2.5, 5, 10 mg/kg i.p., vs vehicle treated group housed mice): none of the doses of KNX100 resulted in a significant difference in distance travelled | time spent fighting ([2]; KNX100 dihydrochloride salt 2.5, 5 or 10 mg/kg i.p. 15 min prior, single housed mice, linear trend for dose, 10 min test): dose dependently inhibited induced aggression; also recorded: dose dependently inhibited fighting | distance travelled [2, 8]: dose dependently decreased distance travelled; also recorded: dose dependently inhibited | time spent huddling [2, 8]: dose dependently increased time spent in this form of close physical contact; also recorded: dose dependently increased huddling | time spent self-grooming [2, 8]: dose dependently increased time spent self-grooming | efficacy of subchronic compared with acute KNX100 (duration spent fighting, number of fights, latency to first fight) ([2]; KNX100 phosphate salt 15 mg/kg freebase equivalent p.o.): no significant difference in efficacy; also recorded: maintains full efficacy at reducing aggressive behaviour after repeated dosing; also recorded: equally efficacious | greater number of fights in single housed mice [2, 9]: prevented | reduced latency to first fight in single housed mice [2, 9]: prevented | increased time spent fighting in single housed mice ([2]; acute KNX100 phosphate salt 15 mg/kg freebase equivalent p.o. on day 7, 30 min prior): prevented the increased time spent fighting | greater number of fights in single housed mice [2, 10]: prevented | reduced latency to first fight in single housed mice [2, 10]: prevented | increased time spent fighting in single housed mice [2, 10]: prevented the increased time spent fighting
